Results reported in patent US20240018132A1, “5-HYDROXY-1,4-NAPHTHALENEDIONE FOR USE IN THE TREATMENT OF CANCER” (GODAVARI BIOREFINERIES LIMITED, priority 2020, published 2024).

What was measured:
PC3 [1] = experiment: In vitro antiproliferative assay (MTT assay), prostate cancer cell line; assay type: cell-based; conditions: Homo sapiens, PC-3, 48 h, MTT assay, prostate cancer PC3, 48 hrs drug incubation
Method: (§1) MTT assay is a simple and sensitive assay where, metabolic reducing activity of the cells is measured. The increase of this activity in time is taken as a parameter of cell growth. If treatment with a drug impairs this increase, the action is a consequence of growth inhibition, cell killing or both. […] All cell lines were cultured in a 37° C. incubator with a 5% CO2 environment. Compounds were dissolved in DMSO with a concentration of 0.1M (stock solution). Cells were seeded into 96-well plates at suitable plating efficiency.
(§2) Following plating efficiencies were standardized for MTT assay:
(§3) In the MTT procedure, the cells were plated in 96 well plates as per predetermined plating efficiency (Table1). The plates were then incubated for 24 hrs in 5% CO2 atmosphere at 37° C. Appropriate concentrations of the drugs were then added to the plate and further incubation was carried out for 48 hrs (in 5% CO2 atmosphere at 37° C.). The assay plate was then centrifuged twice at 3000 rpm for 3 mins and supernatant was then discarded. 100 ul of MTT solution (0.5 mg/ml) was then added to each well of the plate and it was further incubated for 4 hrs (in 5% CO2 atmosphere at 37° C.) Following 4 hr incubation, the plate was then centrifuged twice, and supernatant was aspirated off very carefully. 200 ul of DMSO was then added to each well to solubilize. MTT crystals and mixed well by shaking the plate. XY graph of log percent viability was then plotted against log drug concentration.

MDAMB231 [2] = experiment: In vitro antiproliferative assay (MTT assay), breast cancer cell line; assay type: cell-based; conditions: Homo sapiens, MDA-MB-231, 48 h, MTT assay, breast cancer MDAMB231, 48 hrs drug incubation
Method: as §1, §2, §3

MDAMB231 [3] = experiment: In vitro sphere-forming assay (cancer stem cells), Mammosphere media; conditions: for viability at 0.0025 µM / viability at 0.025 µM / viability at 0.25 µM / viability at 2.5 µM / viability at 25 µM: Homo sapiens, MDA-MB-231, read-out: % Viability of spheres (MDAMB231); for 3D sphere count of MDAMB231: Mammosphere media, 2000 cells/well, n = 6 ± S.D
PC3 [4] = experiment: In vitro sphere-forming assay (cancer stem cells), Prostosphere media; conditions: for viability at 0.0025 µM / viability at 0.025 µM / viability at 0.25 µM / viability at 2.5 µM / viability at 25 µM: Homo sapiens, PC-3, read-out: % Viability of spheres (PC3); for 3D sphere count of PC3: Prostosphere media, 2000 cells/well, n = 6 ± S.D
Method: In Vitro Sphere-forming Assay: Sphere assay measures the ability of cancer stem cells (CSCs) to form spheres in specially designed serum-free medium.
Prostosphere Media Preparation (For 100 mL):1 g methyl cellulose autoclaved with magnetic stirrer, 100 mL plain media (Prostate Epithelial Basal Medium) was added and dissolved, under magnetic stirring. After complete dissolution, Insulin-40 μL, B27-2 mL, EGF-80 μL, Penstrep-1 ml was added.
Procedure—The cells were trypsinised and made into single-cell suspension by passing through cell strainers (100 μl and 40 μl, respectively), The cells were diluted at a concentration of 2000 cells/100 μL and suspended in either Mammosphere (for breast cell lines) or Prostosphere (for prostate cell lines). 100 μL of this suspension was added into each well of 96-well suspension plates and incubated at 37° C., 5% CO2 for 24 hrs. Appropriate concentrations of the drugs (2 μL) were added into respective wells with 100 μL of stem cell culture medium. Plates were incubated at 37° C., 50 CO2 for 72 hrs. After incubation, 2.5 μL of the respective drug concentration and 50 μL of stem cell culture medium were added into each well and the plates were further incubated at 37° C., 50% CO2 for 72 hrs. 3 μL of the respective drug concentration was added with 50 μL of stem cell culture medium again after incubation and plates were reincubated for 72 hrs at 37° C., 50 CO2. Number of primary spheres formed for each concentration were counted. The spheres were converted to 0 viability of spheres compared to untreated (Growth Control with DMSO, GCD).

Row | Compound | IC50 (PC3 [1]) | IC50 (MDAMB231 [2]) | viability at 0.0025 µM (MDAMB231 [3]) | viability at 0.025 µM (MDAMB231 [3]) | viability at 0.25 µM (MDAMB231 [3]) | viability at 2.5 µM (MDAMB231 [3]) | viability at 25 µM (MDAMB231 [3]) | 3D sphere count of MDAMB231 (MDAMB231 [3]; drug 0.0025 uM) | 3D sphere count of MDAMB231 (MDAMB231 [3]; drug 0.025 uM) | 3D sphere count of MDAMB231 (MDAMB231 [3]; drug 0.25 uM) | 3D sphere count of MDAMB231 (MDAMB231 [3]; drug 2.5 uM) | 3D sphere count of MDAMB231 (MDAMB231 [3]; drug 25 uM) | viability at 0.0025 µM (PC3 [4]) | viability at 0.025 µM (PC3 [4]) | viability at 0.25 µM (PC3 [4]) | viability at 2.5 µM (PC3 [4]) | viability at 25 µM (PC3 [4]) | 3D sphere count of PC3 (PC3 [4]; drug 0.0025 uM) | 3D sphere count of PC3 (PC3 [4]; drug 0.025 uM) | 3D sphere count of PC3 (PC3 [4]; drug 0.25 uM) | other results
1 | COc1ccc(OC2=CC(=O)c3c(OCCCN4CCOCC4)cccc3C2=O)cc1 [Formula 77] | 0.269 µM | 2.22 µM | 82% | 70% | 53% | 40% | 30% | 74(±4) | 63(±5) | 48(±3) | 36(±4) | 27(±3) | 80% | 68% | 51% | 36% | 26% | 64(±3) | 55(±3) | 41(±3) | 3D sphere count of PC3 (PC3 [4]; drug 2.5 uM): 29(±6); 3D sphere count of PC3 (PC3 [4]; drug 25 uM): 21(±3)
2 | O=C1C(Oc2ccc(F)cc2)=CC(=O)c2c(OCCCN3CCOCC3)cccc21 [Formula 78] | 3.46 µM | 5.5 µM | 87% | 67% | 57% | 46% | 35% | 79(±3) | 65(±5) | 52(±4) | 42(±4) | 32(±3) | 81% | 68% | 53% | 41% | 30% | 65(±4) | 55(±3) | 43(±3) | 3D sphere count of PC3 (PC3 [4]; drug 2.5 uM): 33(±3); 3D sphere count of PC3 (PC3 [4]; drug 25 uM): 24(±4)
3 | O=C1C=C(Oc2ccc3c(c2)OCO3)C(=O)c2c(OCCN3CCOCC3)cccc21 [Formula 79, 8-(2-morpholinoethoxy)-2-(benzo[d][1,3]dioxol-6-yloxy)naphthalene-1,4-dione] | 0.527 µM | 0.502 µM | 76% | 56% | 39% | 26% | 19% | 69(±3) | 51(±3) | 35(±3) | 24(±3) | 17(±3) | 78% | 57% | 43% | 30% | 20% | 65(±4) | 55(±3) | 43(±3) | 3D sphere count of PC3 (PC3 [4]; drug 2.5 uM): 33(±3); 3D sphere count of PC3 (PC3 [4]; drug 25 uM): 24(±4)
4 | O=C1C=C(Oc2ccc(F)cc2)C(=O)c2c(OCCN3CCOCC3)cccc21 [Formula 80, 8-(2-morpholinoethoxy)-2-(4fluorophenoxy)naphthalene-1,4-dione] | 0.482 µM | 0.352 µM | 75% | 53% | 39% | 23% | 15% | 68(±4) | 48(±3) | 35(±4) | 21(±3) | 14(±4) | 73% | 56% | 37% | 27% | 17% | 59(±3) | 45(±3) | 30(±2) | 3D sphere count of PC3 (PC3 [4]; drug 2.5 uM): 22(±4); 3D sphere count of PC3 (PC3 [4]; drug 25 uM): 14(±3)
